Assay results as given in a melting point compilation (Tetko et al.; mined from patent text by program, amines drawn as free bases though some values may be those of a salt).

Row | SMILES | melting point [°C]
1 | NC1=NC(c2ccc(C(F)(F)F)cc2)Nc2cccc(F)c21 (stereo not given) | 220 to 222
2 | O=C(c1ccccc1)C1CCN1C(c1ccccc1)c1ccccc1 (stereo not given) | 114 to 115
3 | Cc1ccc(S(=O)(=O)OCCCCCn2c3c(c4ccccc4c2=O)C(=O)c2ccccc2-3)cc1 | 163 to 165
4 | CCCCCCCCCCCCCCCCCC(=O)OC1CCN(O)CC1 | 75 to 80
5 | NC(=O)OCc1ccc(CNC(=O)[C@@H](CCCNC(N)=N[N+](=O)[O-])NC(=O)C(c2ccccc2)c2ccccc2)cc1 | 130 to 132
6 | CC12CCC(=O)C([N+](=O)[O-])=C1CCC1C2CCC2(C)C(OC3CC3)CCC12 (stereo not given) | 133 to 134
7 | CCNc1nc2cccc(C(=O)O)c2n1Cc1ccc(-c2ccccc2-c2nnn[nH]2)cc1 | 240 to 242
8 | O=C1N=C2CCCCN2C12CCNCC2 | 220
9 | Cc1cc(NC(=O)C(C)(O)COc2ccc(CCF)cc2)ccc1[N+](=O)[O-] (stereo not given) | 102 to 105
10 | CCOC(=O)C1=C(N)NC(N)=C(C(=O)OCC)C1c1ccnc2ccccc12 | 145
11 | COc1cc(OC)c([N+](=O)[O-])cc1C(=O)CCCCCl | 93 to 95
12 | CCCCCCCCCCCCCCCCCCOc1cc2ccccc2c(N=Nc2ccc(OC)cc2)c1O | 95 to 97
13 | CC1(C)OC(=S)Nc2ccc(-c3cc(F)cc(C(F)(F)F)c3)cc21 | 204 to 206
14 | C=CCO/N=C(/C(=O)OCC)c1ccc(OCCOc2ccc3ccccc3c2)s1 | 75 to 77
15 | COC(=O)C(O)=Cc1ccc(OCc2ccc(F)cc2)cn1 | 131 to 132
16 | CC(C)(C)OC1CCCC2C(=O)CCCC12C (stereo not given) | 78 to 79
17 | COc1ccc2c(c1)OCC(c1ccc(C(F)(F)F)cc1)C2c1ccc(O)cc1 (stereo not given) | 211 to 213
18 | O=C(O)C(Sc1nc2ccc(Cl)nc2s1)c1ccccc1 (stereo not given) | 175 to 177
19 | CC(CF)(CF)C(O)C(Oc1ccc(Cl)cc1)n1ccnc1 (stereo not given) | 137
20 | Cc1ccc(CN(C)C(=O)C23CC4CC(CC(C4)C2)C3)cc1 | 93 to 95
21 | CC(=O)OCC(=O)Nc1cccc(N2CCOCC2)c1C#N | 131 to 132
22 | O[C@@H](CNCCOc1ccc2oc(-c3noc(C(F)(F)F)n3)cc2c1)COc1ccccc1F | 117 to 119
23 | CSc1nc(N)nc(Cl)c1-c1ccc(Cl)cc1Cl | 201 to 202
24 | COC(=O)CCc1ccc(NC(=O)NNC(C)=O)cc1 | 159 to 165
25 | CCc1cc2[nH]c(=O)c(-c3ccccc3)cc2c(CC)n1 | > 260

Row | SMILES | melting point [°C]
26 | COc1ccc([N+](=O)[O-])c(OCC(N)=O)c1 | 185 to 187
27 | Ic1cccc(OCCCCCCOc2c(I)cc(I)cc2I)c1 | 65 to 66
28 | O=C(NCc1ccc(F)cc1-n1cncn1)c1nc2n(c(=O)c1O)CCN2CCO | 220 to 222
29 | O=C(NC1CCOCC1)c1ccc2nonc2c1 | 204 to 205
30 | O=C1c2cc(O)ccc2CCN1Cc1cccnc1 | 136 to 137
31 | CC(CCCC(C)(C)Cl)C1CC=C2C3=C(CCC21C)C1(C)CCC(O)C(C)(C)C1CC3 (stereo not given) | 131 to 133
32 | CCc1ccc(NC(=O)Nc2cc(C(C)(C)C)sc2C(=O)NC)cc1 | 101 to 104
33 | CCOC(=O)COc1ccc(C(=O)c2cccs2)c2ccccc12 | 79
34 | CC1(C)OC(=O)C(Oc2cccc(F)c2)=C1c1ccc(S(C)(=O)=O)cc1 | 136 to 138
35 | CC(=O)Oc1ccc(CCC(=O)Nc2cc(C)c(O)c(C)c2)cc1OC(C)=O | 118 to 119
36 | CC(=NOCCOc1ccc(CC2SC(=O)NC2=O)cc1)c1cc(C)c(O)c(C)c1 (stereo not given) | 53 to 65
37 | Oc1ccc(-c2nnc(CCCCCCc3ccccc3)o2)cc1 | 125 to 129
38 | CCCCCCCCCCC[C@@H]1CC(O)=CC(=O)O1 | 86 to 87
39 | CS(=O)(=O)Nc1ccc(CCC(=O)O)cc1 | 152 to 154
40 | CC(C)N(CCNc1nc(Nc2cccc(NS(C)(=O)=O)c2)nc2[nH]cnc12)C(C)C | 226 to 230
41 | C=CCSC[C@H](NC(=O)OC(C)(C)C)C(=O)OC | 37 to 38
42 | CC(O)Cc1cc([N+](=O)[O-])cc(N)c1N (stereo not given) | 174
43 | O=C(O)CSc1sccc1Br | 64 to 65
44 | COc1ccc2cc(N)ccc2c1 | 133 to 136
45 | Cc1ccc(-c2ncc(N3CCC(O)CC3)nc2-c2ccc(C)cc2)cc1 | 176 to 178
46 | CCOC(=O)C(C(C)=O)=C(N)C(F)(F)F | 63 to 65
47 | CC(=O)N1CCC(CC(=O)c2ccc(N(C)C)cc2)CC1 | 136
48 | Cc1nc(CS(=O)(=O)c2cccc(Cl)c2Cl)no1 | 105 to 107
49 | Brc1ccc2c3c(cccc13)C(NCCCCn1ccnc1)=N2 | 145 to 147
50 | COC(=O)C1=C(C)NCC(C)(C(=O)OC)C1c1ccccc1C=C[Si](C)(C)C (stereo not given) | 148 to 150

Row | SMILES | melting point [°C]
51 | CN1C(=O)CC[C@]2(C)c3ccc(-c4ccccc4Cl)cc3CC[C@@H]12 | 111 to 120
52 | O=C(Nc1ccc(F)cc1F)c1cccc(Cl)n1 | 86 to 87
53 | Cc1c(Br)csc1-c1nc(-c2c(F)cccc2Cl)nn1C | 111 to 112
54 | Oc1ccc(-c2nn(-c3ccccc3F)c3cc(O)ccc23)c(O)c1 | > 205
55 | COc1cc(OCc2ccccn2)ccc1/C=C/C(=O)CC(=O)/C=C/c1ccc2ccn(C)c2c1 | 191 to 192
56 | CN(C(=O)OCc1ccccc1)c1ccc([N+](=O)[O-])cc1O | 192
57 | O=C(O)c1ccccc1OCCN1CCC(c2cn(Cc3ccc(Cl)s3)c3ccccc23)CC1 | 178 to 179
58 | COc1nc(O)nn1C(C)C | 102 to 103
59 | COc1ccc(-c2cc(OC3SCC(OC(C)=O)C(OC(C)=O)C3OC(C)=O)ccn2)cc1 (stereo not given) | 113 to 114
60 | CCCCCc1nc2c(N)nc3ccccc3c2n1CCCCNS(C)(=O)=O | 137 to 138
61 | CN(C)c1ccc(C(=O)CCCN2CCC(C(O)(c3ccccc3)c3ccccc3)CC2)cc1 | 148 to 150
62 | CSc1cc2c(cn1)c(=O)n(C)c1cc(C)nn21 | > 300
63 | CCOc1cc(OCC)c(C=[N+]([O-])C2CCCCC2)c(OCC)c1 | 146
64 | COc1cc(S(=O)(=O)N2CCNCC2)cc(OC)c1OC | 131 to 133
65 | CCCn1c(=O)n2c(=O)[nH]nc2c2c1ncn2C | 299 to 301
66 | CCOC(=O)[C@H](Cc1cccc(Oc2ccc3ccccc3c2)c1)NC(=O)C(F)(F)F | 78 to 80
67 | O=C(O)COc1cccc2c1CCc1sc(S(=O)(=O)C(c3cccc(F)c3)c3cccc(F)c3)nc1-2 | 213 to 214
68 | CCOCCOC(=O)C(=O)Nc1nc(-c2ccc(OCC)cc2)cs1 | 139 to 140
69 | CN1C(=O)N(c2cc(Cl)cc(Cl)c2)C(=O)[C@]12CN(C1CC1)C[C@H]2c1ccc(C#N)cc1 (relative stereo) | 216
70 | Cn1ncnc1COc1nn2c(-c3ccccc3)nnc2c(Cl)c1N1CCCC1 | 174 to 176
71 | CCOc1nc(NCc2ccco2)nc(Nc2ccc3[nH]c(-c4cccs4)nc3c2)n1 | 170 to 172
72 | O=C1c2ccccc2CCc2cccnc21 | 118 to 120
73 | CCc1cc(N(C=O)c2ccccc2)cc(CC)c1N=C=S | 77 to 78
74 | CC1(C)CCC(C)(C)c2cc(C#Cc3ccc(/C=C/C(=O)O)cc3)ccc21 | 256 to 258
75 | CCOC(=O)C1=C(C)NC(C)=C(C(=O)OCC)C1c1ccc(OCCCN(C)C)c(OC)c1 | 62

Row | SMILES | melting point [°C]
76 | COc1ccc2c(c1)COc1c-2cc(-c2cccs2)c2cc(OC)ccc12 | 110 to 112
77 | NC(=S)C=C(N)CCOCc1ccccc1 | 93 to 94
78 | O=C(O)c1cn(C2CC2)c2nc(N3Cc4ccccc4C3)c(F)cc2c1=O | > 300
79 | COc1ccc(COc2c(OC)ccc3c2CC(C(=O)O)N(C(=O)C(c2ccccc2)c2ccccc2)C3)cc1C (racemic) | 140 to 142
80 | CC(C)C1=Nc2ccccc2N(C)C(=O)C1N (stereo not given) | 167 to 168
81 | CN1CCCc2cc(Cc3cnc(N)nc3N)ccc21 | 190 to 191
82 | CN(Cc1cccc2c1CN(C1CCC(=O)NC1=O)C2=O)C(=O)Nc1cccc(F)c1 (stereo not given) | 218 to 220
83 | CCn1cc(C(=O)O)c(=O)c2cc(F)c(N3CC4CC3CN4Cc3ccccc3)c(F)c21 (stereo not given) | 195 to 198
84 | CC1(N)CN(c2c(F)cc3c(=O)c(C(=O)O)cn(-c4ccc(F)cc4F)c3c2F)C1 | 185 to 186
85 | CC(C)c1c(C(=O)c2cccc(C=CC#N)c2)[nH]c(=O)[nH]c1=O | 210 to 211
86 | CCOC(=O)c1cnc(SC)nc1NCc1ccc(OC)c([N+](=O)[O-])c1 | 99 to 100
87 | Cc1nc(O)c(C(=O)O)cc1Cl | 291 to 294
88 | CC(=O)c1nn(-c2c(Cl)cc(C(F)(F)F)cc2Cl)cc1SC(F)(F)F | 89 to 91
89 | CCCNCC(O)c1cccc(Cl)c1 (stereo not given) | 69.5 to 71
90 | Cc1c(-c2cncc(CO)c2)ccc2c(=O)c(C(=O)O)cn(C3CC3)c12 | 221 to 223
91 | COc1ccc(-c2nc3ccccc3nc2-c2ccc(OC)cc2)cc1 | 148
92 | OCc1ccc(-c2ccccc2-c2nnn(C(c3ccccc3)(c3ccccc3)c3ccccc3)n2)cc1 | 168 to 170
93 | CC(=O)C(C)N(C(=O)CCl)c1c(C)cccc1C (stereo not given) | 78 to 82
94 | O=C1c2ccccc2C(=O)N1CCCCN1CCN(c2ncccn2)CC1 | 138
95 | COC(=O)[C@@]12CN(Cc3ccccc3)C[C@@H]1[C@@](O)(c1ccc(OC)cc1)CC[C@H]2c1ccccc1 (racemic) | 136
96 | N#Cc1ccc(Cn2cc(C=CC=O)nn2)cc1 | 152 to 155
97 | CS(=O)(=O)N(c1cc2c(cc1Oc1ccccc1)C(C#N)CC2)S(C)(=O)=O (stereo not given) | 200
98 | COC(=O)COc1ccc(CC(C)NCC(O)c2ccc(O)c(CO)c2)cc1 (stereo not given) | 60 to 63
99 | CON=CC1=CCCN(C(=O)OCCc2ccc([N+](=O)[O-])cc2)C1 | 93 to 94
100 | CC1(C)CC(=O)c2c(C3CCCCC3)sc(C#N)c2C1 | 129 to 132
